Among the data in BindingDB's records for doi:10.7270/Q2WS8WDS (n/a, 1995) are IC50 values, retold here.

For orientation: IC50 means the concentration that inhibits the measured activity by half. Read a high IC50 as weaker potency in that assay.

This assay deals with T1, Protein kinase C zeta type (Rattus norvegicus, UniProt P09217).
T1 sequence (P09217 whole entry): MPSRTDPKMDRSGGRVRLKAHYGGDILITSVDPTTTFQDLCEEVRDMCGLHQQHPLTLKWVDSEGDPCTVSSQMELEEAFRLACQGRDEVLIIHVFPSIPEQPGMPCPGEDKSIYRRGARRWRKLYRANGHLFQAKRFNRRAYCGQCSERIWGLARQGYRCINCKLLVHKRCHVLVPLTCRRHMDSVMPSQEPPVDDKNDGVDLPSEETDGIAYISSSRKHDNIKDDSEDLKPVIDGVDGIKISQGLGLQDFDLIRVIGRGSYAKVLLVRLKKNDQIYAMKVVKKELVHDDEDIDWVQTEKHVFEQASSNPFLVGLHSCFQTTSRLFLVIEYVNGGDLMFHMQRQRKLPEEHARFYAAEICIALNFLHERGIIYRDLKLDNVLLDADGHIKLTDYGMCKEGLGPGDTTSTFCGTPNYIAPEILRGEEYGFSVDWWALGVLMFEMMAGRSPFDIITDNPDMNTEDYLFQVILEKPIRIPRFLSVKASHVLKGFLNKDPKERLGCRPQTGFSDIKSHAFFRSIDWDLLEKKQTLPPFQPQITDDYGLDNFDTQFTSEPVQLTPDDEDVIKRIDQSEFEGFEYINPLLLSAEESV
The assay can be described thus: Inhibition of Protein kinase C isolated from rat brain.

In turn, `CCCCCCCCCCC#Cc1cccc([C@@H](O)[C@@H](N)CO)c1` displayed a 50% inhibitory concentration (IC50) of 22.2 µM.

Compound `CCCCCCCCCCCCC/C=C/[C@@H](O)[C@@H](N)CO` [(E,2S,3R)-2-azanyloctadec-4-ene-1,3-diol] displayed an IC50 of 23.4 µM.
